The results in this text go back to patent US20200325518A1, “Systems and Methods for Metabolic Assessment Utilizing 1-Methoxy-PMS Field” (priority 2019, published 2020).

Converted amounts (≈) assume the structure as drawn. Where two headings read alike, the source gives them in different places.

Format in all cases: cell-based
One assay relates to E. coli. Description: CLSI overnight reference method MIC of antimicrobials against E. coli strains. Particulars: unit assumed.
A further assay relates to P. aeruginosa. As to the kind of experiment: Rapid AST by surface binding of europium probe with time resolved fluorescence. Particulars: Pseudomonas aeruginosa. The method, then:
The x-axis of each graph denotes the concentrations of antimicrobial Amikacin (AMK) in micrograms/milliliter, and the y-axis denotes fluorescence from binding to bacteria surface. Growth check data measured by optical density (Absorbance at 600 nm) of the bacterial culture is denoted for each strain.
AST was performed by surface binding of probe followed by time resolved fluorescence. The P aeruginosa strains were incubated at 35° C. in shaking conditions for 4 hours for attaining growth, and growth check was performed by measuring absorbance of the culture at 600 nm after 4 hours of growth.

A further assay deals with Bacteria. As to the kind of experiment: BacTiter-Glo luminescence after incubation of bacteria with or without resazurin. Particulars: bacteria incubated 4 hours at 35° C. in presence of resazurin versus added after incubation. The method, then:
Bacteria were inoculated into 96-well microplates comprise cation-adjusted Mueller Hinton broth in the presence and absence of resazurin (alamarBlue™) and incubated at 35° C. for 4 hours. For wells that were not incubated with resazurin, the growth indicator was added immediately after the 4-hour incubation. BacTiter-Glo® reagent (Promega, Madison, Wis.) was added to all wells and luminescence was measured. […] Thus, it can be advantageous to remove growth indicator from test wells during incubation.

Setting [1] is: E. coli strain Clinical Sample 1.
Where [2] appears, read: E. coli strain Clinical Sample 2.
[3] abbreviates: E. coli strain Clinical Sample 4.
Setting [4] is: E. coli strain Clinical Sample 5.
[5] abbreviates: E. coli strain Clinical Sample 6.
[6] abbreviates: E. coli strain Clinical Sample 7.
[7] abbreviates: E. coli strain Clinical Sample 8.
Setting [8] is: E. coli strain Clinical Sample 9.
The mark [9] stands for this setting: E. coli strain Clinical Sample 10.
Setting [10] is: E. coli strain Clinical Sample 11.
Where [11] appears, read: E. coli strain Clinical Sample 12.
Where [12] appears, read: E. coli strain Clinical Sample 13.

In the case of `CC1(C)S[C@@H]2[C@H](NC(=O)[C@H](N)c3ccccc3)C(=O)N2[C@H]1C(=O)O` [AMP, Ampicillin], the MIC (CLSI Ref) in the assay with E. coli (E. coli strain BEI 4.097) is 4 µg/mL; with E. coli (E. coli strain CDC Carba36), above 32 µg/mL; in the assay on E. coli (setting [1]), 4 µg/mL; in the assay with E. coli (setting [2]) it was above 32 µg/mL; in the assay on E. coli (setting [3]) it was above 32 µg/mL; in the assay on E. coli (setting [4]) it was above 32 µg/mL. In addition, the MIC (CLSI Ref) was 4 µg/mL in the assay with E. coli (setting [5]); above 32 µg/mL in the assay on E. coli (setting [6]); above 32 µg/mL with E. coli (setting [7]); above 32 µg/mL in the assay with E. coli (setting [8]); above 32 µg/mL in the assay with E. coli (setting [9]); 4 µg/mL in the assay with E. coli (setting [10]). For the same compound, the MIC (CLSI Ref) in the assay on E. coli (setting [11]) was 4 µg/mL; in the assay on E. coli (setting [12]), above 32 µg/mL.

As to `NCC[C@H](O)C(=O)N[C@@H]1C[C@H](N)[C@@H](O[C@H]2O[C@H](CN)[C@@H](O)[C@H](O)[C@H]2O)[C@H](O)[C@H]1O[C@H]1O[C@H](CO)[C@@H](O)[C@H](N)[C@H]1O` [AMK, Amikacin], the MIC (usually the lowest concentration found to suppress growth) in the assay on P. aeruginosa (P. aeruginosa Strain 1, growth check value 2.18, 4 hours growth, read-out: MIC) was 8 µg/mL (≈ 13.7 µM); in the assay on P. aeruginosa (P. aeruginosa Strain 2, growth checkpoint value 1.13, no reliable MIC data obtained, read-out: MIC expected), 8 µg/mL (≈ 13.7 µM). Moreover, the MIC (CLSI Ref) with E. coli (E. coli strain BEI 4.097), in the assay on E. coli (E. coli strain CDC Carba36), in the assay with E. coli (setting [1]), in the assay with E. coli (setting [2]), with E. coli (setting [3]) and in the assay with E. coli (setting [4]) was 4 µg/mL each time. In addition, the MIC (CLSI Ref) with E. coli (setting [5]) is 4 µg/mL; in the assay with E. coli (setting [6]) it was 2 µg/mL; in the assay on E. coli (setting [7]), 4 µg/mL; in the assay on E. coli (setting [8]), 4 µg/mL; with E. coli (setting [9]) it was 8 µg/mL; in the assay with E. coli (setting [10]), 4 µg/mL. The MIC (CLSI Ref) in the assay on E. coli (setting [11]) and with E. coli (setting [12]) was 4 µg/mL each time.

For Colistin [CST], the MIC (CLSI Ref) in the assay with E. coli (E. coli strain BEI 4.097) was found to be 0.12 µg/mL; with E. coli (E. coli strain CDC Carba36), 0.25 µg/mL; in the assay with E. coli (setting [1]) it was 0.12 µg/mL; with E. coli (setting [2]) it was 0.12 µg/mL; in the assay with E. coli (setting [3]), 0.25 µg/mL; in the assay on E. coli (setting [4]), 0.25 µg/mL. Further, the MIC (CLSI Ref) in the assay on E. coli (setting [5]) was found to be 0.12 µg/mL; in the assay with E. coli (setting [6]), 0.12 µg/mL; in the assay on E. coli (setting [7]), 0.12 µg/mL; in the assay with E. coli (setting [8]) it was 0.5 µg/mL; in the assay with E. coli (setting [9]) it was 0.25 µg/mL; in the assay with E. coli (setting [10]), 0.5 µg/mL. Moreover, the MIC (CLSI Ref) in the assay on E. coli (setting [11]) and with E. coli (setting [12]) was 0.25 µg/mL throughout.

As to `O=c1ccc2[n+]([O-])c3ccc(O)cc3oc-2c1` [resazurin, 7-hydroxy-10-oxidophenoxazin-10-ium-3-one], the “luminescent signal upon addition of BacTiter-Glo (viable bacteria)” value in the assay on Bacteria was “less luminescent signal”.
